Data reported in patent EP0206858A1, “Process for the synthesis of macromolecular derivatives of nicotinamide adenine” (SOCIETE NATIONALE ELF AQUITAINE, priority 1985, dated 1986).

How the values were obtained:
L-lactate déshydrogénase = assay: Initial rate of oxidation of the reduced forms with L-lactate dehydrogenase (Example 7); type: biochemical; conditions: reduced forms after Na2S2O4 treatment; coenzyme 0,17 mM, Tris HCl 50 mM, 16 mM sodium pyruvate, 17 mU L-lactate dehydrogenase; NADH = 100
Procedure: Ces mêmes produits, mais sous forme réduite après traitement au Na2S2O4, sont soumis à un essai de mesure de la vitesse initiale d'oxydation avec l'enzyme L-lactate déshydrogénase.
Cette mesure s'effectue sur un milieu réactionnel de 0,5 ml contenant le coenzyme 0,17 mM (exprimé comme dans l'exemple 6) le même tampon 50 mM, 16 mM en pyruvate de sodium et 17 mU de L-lactate déshydrogènase à 700 U/mg. A titre comparatif la même mesure est effectuée sur NADH et le dérivé de formule 4 réduit.

hydrogénase = assay: Initial rate of reduction with a hydrogenase (Example 6); type: biochemical; conditions: coenzyme 0,17 mM expressed as bound NAD+, Tris HCl pH8,0 50 mM, hydrogen at saturation, 29 mU hydrogenase; NAD+ = 100
Procedure: Les produits A à E préparés selon les procédés décrits dans les exemples 1 à 5 précédents sont soumis à un essai de mesure de la vitesse initale de réduction avec une hydrogénase.
Cette mesure s'effectue sur un milieu réactionnel de 0,28 ml contenant le coenzyme 0,17 mM, exprimé en NAD^+ lié pour les dérivés du NAD^+, 50 mM en tampon pH8,0 Tris HCl, de l'hydrogène à saturation et 29 mU d'enzyme hy- drogènase à 21 U/mg.
A titre comparatif la même mesure est effectuée sur le noyau NAD^+ et sur les dérivés substitués de formules (4) et (5).

| Taux initial de réduction (%) (hydrogénase) | SMILES | Taux initial d'oxydation (%) (L-lactate déshydrogénase) |
| --- | --- | --- |
| – | NCCCCCCNc1nc2c(N)ncnc2n1[C@@H]1O[C@H](COP(=O)(O)OP(=O)(O)OC[C@H]2O[C@@H](N3C=CCC(C(N)=O)=C3)[C@H](O)[C@@H]2O)[C@@H](O)[C@H]1O [Dérivé (4) réduit] | 62,5% |
| 50% | NCCCCCCNc1nc2c(N)ncnc2n1[C@@H]1O[C@H](COP(=O)(O)OP(=O)([O-])OC[C@H]2O[C@@H]([n+]3cccc(C(N)=O)c3)[C@H](O)[C@@H]2O)[C@@H](O)[C@H]1O [Dérivé (4), C^8-(6-aminohexyl)-amino-NAD^+] | – |
| 90% | NCCNc1ncnc2c1ncn2[C@@H]1O[C@H](COP(=O)(O)OP(=O)([O-])OC[C@H]2O[C@@H]([n+]3cccc(C(N)=O)c3)[C@H](O)[C@@H]2O)[C@@H](O)[C@H]1O [Dérivé (5), N^6-(2-aminoéthyl)-NAD^+] | – |
| – | NC(=O)C1=CN([C@@H]2O[C@H](COP(=O)(O)OP(=O)(O)OC[C@H]3O[C@@H](n4cnc5c(N)ncnc54)[C@H](O)[C@@H]3O)[C@@H](O)[C@H]2O)C=CC1 [NADH, nicotinamide adénine dinucléotide] | 100% |
| 100% | NC(=O)c1ccc[n+]([C@@H]2O[C@H](COP(=O)([O-])OP(=O)(O)OC[C@H]3O[C@@H](n4cnc5c(N)ncnc54)[C@H](O)[C@@H]3O)[C@@H](O)[C@H]2O)c1 [NAD^+] | – |
